Experimental data from patent US5407925A (priority 1991, dated 1995).

How the values were obtained:
[1] = direct intrathecal administration, 100 uM in the cerebrospinal fluid; cited from earlier work
cells in vitro = settings: compared with 4-hydrocyclophosphamide, Redwood et al. 1982; cited from earlier work
[2] = tested on: rhabdomyosarcoma cell line; settings: cited from earlier work
[3] = tested on: Burkitt's lymphoma cell lines; settings: De Fabritiis et al. 1985; cited from earlier work
[4] = tested on: human breast cancer cells; settings: Kubota et al. 1983; cited from earlier work
TE-671 [5] = settings: medulloblastoma cell line TE-671; cited from earlier work
TE-671 [6] = experiment: intrathecal treatment of subarachnoid TE-671 human medulloblastoma xenografts in nude rats; type: in vivo, Female athymic nude rats; human medulloblastoma cell line; settings: for loss of antigravity strength / increase in median survival: intrathecal
McF-7 = settings: breast cancer cell line McF-7; cited from earlier work
[7] = clinical evidence of toxicity of intrathecal treatment in tumor-bearing nude rats; settings: either dose (final concentration 100 uM or 250 uM)
murine leukemia cells = settings: Hilton 1984; cited from earlier work
MOLT-4 = MOLT-4 (a T-cell leukemia); cited from earlier work
[8] = final concentration 250 uM, p less than 0.01

O=P1(N(CCCl)CCCl)NC(OO)CCO1 (stereo not shown) [4-HC, 4-hydroperoxycyclophosphamide]
toxicity [1]: without producing toxicity | toxicity on a molar basis to cells in vitro versus 4-hydrocyclophosphamide (cells in vitro): equal toxicity on a molar basis | concentration at which active [2]: 8 µM | activity in vitro [3]: active in vitro | activity in vitro [4]: active in vitro | concentration at which active (TE-671 [5]): 12.8 µM | time by which loss of stepping and placing reflexes and ramp climbing ability preceded death (TE-671 [6]; both treatment studies (100 uM and 250 uM)): approximately 3 days | loss of antigravity strength (TE-671 [6]; final CSF concentration 100 uM, day 8 after tumor inoculation, p=0.036): delay in the loss of antigravity strength | increase in median survival (TE-671 [6]; final CSF concentration 100 uM, day 8 after tumor inoculation, p=0.04): 20% | increase in median survival (TE-671 [6]; [8]): 36% | loss of antigravity strength (TE-671 [6]; [8]): further delay in the loss of antigravity strength | histopathology after death: subarachnoid tumor infiltrate (TE-671 [6]; sections from all animals, 4-HC-treated and saline-treated control groups, base of the brain to the cauda equina): diffuse subarachnoid infiltrate of tumor cells | concentration at which active (McF-7): 9.5 µM | clinical evidence of toxicity [7]: no clinical evidence of toxicity | activity in vitro (murine leukemia cells): active in vitro | concentration at which active (MOLT-4): 2.5 µM
